Measured values published in article PMC3045540 (Molecular and biochemical parasitology, 2010).
pIC50: −log10 of the molar value. Like-named read-outs stand apart in the source and are kept apart here.

Experiments:
HsGSK-3β = HsGSK-3β (Homo sapiens, UniProt P49841); test: Kinase-Glo assay, inhibition of human GSK-3β; format: biochemical; conditions: read-out: Mean IC50 (SD), HsGSK-3b; 3.2 μM BioGSP-2, 2 μM ATP, 90 minutes at 30°C
[1] = target: LmajFGSK-3 (LmajGSK-3 short Y102F mutant) (Leishmania major, UniProt Q4QE15, Y102F); test: biochemical; format: biochemical, L. major
TbruGSK-3 short = TbruGSK-3 short (Trypanosoma brucei brucei, UniProt Q388M1); test: biochemical; format: biochemical, T. brucei
LinfGSK-3 short = LinfGSK-3 short (Leishmania infantum, UniProt A4HXQ3); test: biochemical; format: biochemical, L. infantum; conditions: for mode of inhibition of LinfGSK-3 short (velocity at different ATP concentrations): Fig. 3A
LmajGSK-3 short = LmajGSK-3 short (Leishmania major, UniProt Q4QE15); test: biochemical; set-up: species or system L. major
[2] = target: LmajEGSK-3 (LmajGSK-3 short D105E mutant) (Leishmania major, UniProt Q4QE15, D105E); test: biochemical; format: biochemical, L. major
[3] = target: LmajEFGSK-3 (LmajGSK-3 short Y102F and D105E double mutant) (Leishmania major, UniProt Q4QE15, D105E/Y102F); test: biochemical; set-up: species or system L. major
[4] = read-out: Mean IC50 (SD), LmajFGSK-3, Y102F mutant, 8.2 nM enzyme, 3.2 μM BioGSP-2, 2 μM ATP, 90 minutes at 30°C

HsGSK-3β, sequence (P49841 whole entry): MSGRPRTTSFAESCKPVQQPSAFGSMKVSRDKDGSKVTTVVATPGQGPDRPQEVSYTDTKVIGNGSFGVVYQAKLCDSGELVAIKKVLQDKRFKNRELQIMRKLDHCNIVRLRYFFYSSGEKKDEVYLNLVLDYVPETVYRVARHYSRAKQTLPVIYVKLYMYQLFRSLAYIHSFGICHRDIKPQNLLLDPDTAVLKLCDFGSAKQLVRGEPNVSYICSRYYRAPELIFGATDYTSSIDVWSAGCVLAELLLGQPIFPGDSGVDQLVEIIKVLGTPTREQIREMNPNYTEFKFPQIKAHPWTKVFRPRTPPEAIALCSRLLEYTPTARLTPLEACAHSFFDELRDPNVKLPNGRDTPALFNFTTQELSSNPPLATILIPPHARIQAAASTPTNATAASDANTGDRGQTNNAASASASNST

N#CCCc1ccc2c(c1)-c1[nH]c3ccc([N+](=O)[O-])cc3c1CC(=O)N2 [Alster-paullone, 2-cyanoethyl]
pIC50 (HsGSK-3β): 7.70
pIC50 [1, 4]: 6.51

COc1ccc2c(c1)/C(=C/c1cnc[nH]1)C(=O)N2 [SU9516]
pIC50 (TbruGSK-3 short): 6.23
pIC50 (LinfGSK-3 short): 5.73
pIC50 (LmajGSK-3 short): 5.52
pIC50 [2]: 5.50
pIC50 [3]: 5.89
pIC50 [1]: 5.85

Cdk1/2 Inhibitor III
mode of inhibition of LinfGSK-3 short (velocity at different ATP concentrations) (LinfGSK-3 short): ATP competitive
pIC50 (HsGSK-3β): 6.68
pIC50 [1, 4]: 6.82

O=C1Nc2ccc3ncsc3c2/C1=C/Nc1ccc(S(=O)(=O)Nc2ccccn2)cc1 [GW8510]
pIC50 (TbruGSK-3 short; read-out: IC50 value for TbruGSK-3 short): 7.68
mode of inhibition of LinfGSK-3 short (velocity at different ATP concentrations) (LinfGSK-3 short): ATP competitive
pIC50 (LinfGSK-3 short; read-out: IC50 value for LinfGSK-3 short): 6.20
pIC50 (HsGSK-3β): 7.70
effect of mutation D105E of LmajGSK-3 short on sensitivity to inhibition ([2]; relative to wild type LmajGSK-3 short): ~2 fold
pIC50 ([1]; read-out: IC50 value for the LmajGSK-3 short Y102F mutant): 7.03
pIC50 [1, 4]: 7.05

O=C1Nc2ccc(S(=O)(=O)O)cc2C1=C1Nc2ccccc2C1=NO [Indirubin-3'-monoxime-5-sulphonic Acid]
pIC50 (HsGSK-3β): 7.22
pIC50 [1, 4]: 6.03

O=C1Nc2ccccc2/C1=C/c1cnc[nH]1 [Angio-genesis inhibitor]
pIC50 (HsGSK-3β): 5.79
pIC50 [1, 4]: 5.07

NC1=NC(=O)/C(=C2\CCNC(=O)c3[nH]c(Br)cc32)N1 [Hymeni-aldisine, Stylissa dami-cornis, Hymenialdisine]
pIC50 (TbruGSK-3 short): 5.40
pIC50 (LinfGSK-3 short): 4.74
pIC50 (LmajGSK-3 short): 4.88
pIC50 [2]: 4.98
pIC50 [3]: 5.03
pIC50 [1]: 4.79

COc1ccc(CNC(=O)Nc2ncc([N+](=O)[O-])s2)cc1 [GSK-3β Inhibitor VIII]
Mean IC50 (SD), LinfGSK-3 (LinfGSK-3 short; 2.8 nM enzyme, 3.2 μM BioGSP-2, 2 μM ATP, 90 minutes at 30°C): no activity
Mean IC50 (SD), LmajGSK-3 (LmajGSK-3 short; 8.2 nM enzyme, 3.2 μM BioGSP-2, 2 μM ATP, 90 minutes at 30°C): no activity
Mean IC50 (SD), LmajEGSK-3 ([2]; D105E mutant, 8.2 nM enzyme, 3.2 μM BioGSP-2, 2 μM ATP, 90 minutes at 30°C): no activity
Mean IC50 (SD), LmajFGSK-3 ([1]; Y102F mutant, 8.2 nM enzyme, 3.2 μM BioGSP-2, 2 μM ATP, 90 minutes at 30°C): no activity

Cn1cc(C2=C(c3cn(CCCN)c4ccccc34)C(=O)NC2=O)c2ccccc21 [Ro-31-7549]
pIC50 (HsGSK-3β): 8.40
pIC50 [1, 4]: 5.97
